Experimental data from patent US20110214196A1, “DEVELOPMENT OF HERBICIDE-RESISTANT GRASS SPECIES” (University of Georgia Research Foundation, priority 2008, published 2011).

Assays:
Experiment in all cases: Whole plant greenhouse dose-response, Segment herbicide (Example 8)
Format in all cases: in vivo, seashore paspalum (Paspalum vaginatum)
[1] = system: Mauna Kea line regenerated from tissue culture (TC)
Experimental: (§1) Sethoxydim-resistant plants regenerated from a sethoxydim-resistant cell line, Line A, were tested for resistance at the whole plant level in a dose-response experiment conducted in a greenhouse. In this experiment, Line A was compared to two herbicide-susceptible controls; the original parent line, Mauna Kea (PT); and a Mauna Kea line regenerated from tissue culture (TTC). Plants were transplanted to Cone-tainers™ measuring 4×14 cm and tapering to 1 cm (Stuewe and Sons Inc., Corvallis, Oreg.) containing a 1:1 mix of Fafard® 3B mix and sand and placed on benches under sodium lights in a greenhouse with a 16 hour photoperiod maintained at 27/32° C. day/night for two weeks prior to treatment applications. Each of the three genotypes, Line A, PT and TC were treated with 0, 50, 100, 200, 400, 800, 1600, and 3200 g ai ha^−1 rates of sethoxydim using Segment™ herbicide (BASF Corp., Florham Park, N.J.). All herbicide rates were applied at a spray volume of 1871 ha^−1 in an experimental spray chamber, and after drying, returned to the greenhouse bench and maintained under the conditions described above. Visual estimates of crop injury were recorded at 7, 14, 21, and 28 days after treatment (DAT) using a scale of 0 to 100, where 0 equals no injury and 100 equals complete death. At 42 days after treatment, the above ground portion of all plants was harvested, dried for 48 hours at a temperature of 50° C., and weighed to determine plant dry weight. Treatments were arranged in a randomized complete block design. Only two replications of TCC were possible due to limited plant materials; otherwise four replications were used for the other two genotypes (PT and Line A). Data were first analyzed using a two-way analysis of variance and subsequently analyzed within herbicide rate. Differences among genotype means at each herbicide rate were determined using Fisher's Least Significant Difference (LSD).

[2] = system: original parent line, Mauna Kea (PT)
Experimental: as §1

[3] = system: sethoxydim-resistant Line A
Experimental: as §1

[4] = at rates equal to or greater than 800 g ai ha^−1
[5] = at rates of 200 g ai ha^−1, scale of 0 to 100

CCC/C(=N\OCC)C1=C(O)CC(CC(C)SCC)CC1=O (centres unmarked) [sethoxydim, 2-[1-(ethoxyimino)-butyl]-5-[2-(ethylthio)propyl]-3-hydroxy-2-cylohexen-1-one]
LD50 [1]: 276 g ai ha^1 | Plant Injury ([1]; 50 g a.i. ha^−1, 7 DAT): 4.5a % | Plant Injury ([1]; 50 g a.i. ha^−1, 14 DAT): 12.5ab % | Plant Injury ([1]; 50 g a.i. ha^−1, 21 DAT): 2.5a % | Plant Injury ([1]; 50 g a.i. ha^−1, 28 DAT): 0.0a % | Dry Weight ([1]; 50 g a.i. ha^−1, 42 DAT): 2.2a grams | Plant Injury ([1]; 100 g a.i. ha^−1, 7 DAT): 18.3b % | Plant Injury ([1]; 100 g a.i. ha^−1, 14 DAT): 25.0b % | Plant Injury ([1]; 100 g a.i. ha^−1, 21 DAT): 20.0a % | Plant Injury ([1]; 100 g a.i. ha^−1, 28 DAT): 7.5a % | Dry Weight ([1]; 100 g a.i. ha^−1, 42 DAT): 1.6ab grams | Plant Injury ([1]; 200 g a.i. ha^−1, 7 DAT): 16.7b % | Plant Injury ([1]; 200 g a.i. ha^−1, 14 DAT): 30.0b % | Plant Injury ([1]; 200 g a.i. ha^−1, 21 DAT): 40.0b % | Plant Injury ([1]; 200 g a.i. ha^−1, 28 DAT): 32.5b % | Dry Weight ([1]; 200 g a.i. ha^−1, 42 DAT): 0.4b grams | Plant Injury ([1]; 400 g a.i. ha^−1, 7 DAT): 30.8b % | Plant Injury ([1]; 400 g a.i. ha^−1, 14 DAT): 82.5b % | Plant Injury ([1]; 400 g a.i. ha^−1, 21 DAT): 80.0b % | Plant Injury ([1]; 400 g a.i. ha^−1, 28 DAT): 82.5b % | Dry Weight ([1]; 400 g a.i. ha^−1, 42 DAT): 0.1b grams | Plant Injury ([1]; 800 g a.i. ha^−1, 7 DAT): 60.0c % | Plant Injury ([1]; 800 g a.i. ha^−1, 14 DAT): 87.5b % | Plant Injury ([1]; 800 g a.i. ha^−1, 21 DAT): 95.0b % | Plant Injury ([1]; 800 g a.i. ha^−1, 28 DAT): 100.0c % | Dry Weight ([1]; 800 g a.i. ha^−1, 42 DAT): 0.1b grams | Plant Injury ([1]; 1600 g a.i. ha^−1, 7 DAT): 43.3b % | Plant Injury ([1]; 1600 g a.i. ha^−1, 14 DAT): 100.0c % | Plant Injury ([1]; 1600 g a.i. ha^−1, 21 DAT): 100.0c % | Plant Injury ([1]; 1600 g a.i. ha^−1, 28 DAT): 100.0b % | Dry Weight ([1]; 1600 g a.i. ha^−1, 42 DAT): 0.1b grams | Plant Injury ([1]; 3200 g a.i. ha^−1, 7 DAT): 46.7b % | Plant Injury ([1]; 3200 g a.i. ha^−1, 14 DAT): 100.0b % | Plant Injury ([1]; 3200 g a.i. ha^−1, 21 DAT): 100.0b % | Plant Injury ([1]; 3200 g a.i. ha^−1, 28 DAT): 100.0b % | Dry Weight ([1]; 3200 g a.i. ha^−1, 42 DAT): 0.1b grams | injury score [1, 4]: ≥ 80% | injury score [1, 5]: ≥ 30 | LD50 [2]: 189 g ai ha^1 | Plant Injury ([2]; 50 g a.i. ha^−1, 7 DAT): 5.2a % | Plant Injury ([2]; 50 g a.i. ha^−1, 14 DAT): 6.2b % | Plant Injury ([2]; 50 g a.i. ha^−1, 21 DAT): 5.0a % | Plant Injury ([2]; 50 g a.i. ha^−1, 28 DAT): 1.2a % | Dry Weight ([2]; 50 g a.i. ha^−1, 42 DAT): 1.6a grams | Plant Injury ([2]; 100 g a.i. ha^−1, 7 DAT): 7.9b % | Plant Injury ([2]; 100 g a.i. ha^−1, 14 DAT): 22.5b % | Plant Injury ([2]; 100 g a.i. ha^−1, 21 DAT): 13.8a % | Plant Injury ([2]; 100 g a.i. ha^−1, 28 DAT): 6.2a % | Dry Weight ([2]; 100 g a.i. ha^−1, 42 DAT): 1.3b grams | Plant Injury ([2]; 200 g a.i. ha^−1, 7 DAT): 20.8b % | Plant Injury ([2]; 200 g a.i. ha^−1, 14 DAT): 55.0b % | Plant Injury ([2]; 200 g a.i. ha^−1, 21 DAT): 52.5b % | Plant Injury ([2]; 200 g a.i. ha^−1, 28 DAT): 43.8b % | Dry Weight ([2]; 200 g a.i. ha^−1, 42 DAT): 0.8b grams | Plant Injury ([2]; 400 g a.i. ha^−1, 7 DAT): 30.8b % | Plant Injury ([2]; 400 g a.i. ha^−1, 14 DAT): 67.5b % | Plant Injury ([2]; 400 g a.i. ha^−1, 21 DAT): 67.5b % | Plant Injury ([2]; 400 g a.i. ha^−1, 28 DAT): 72.5b % | Dry Weight ([2]; 400 g a.i. ha^−1, 42 DAT): 0.2b grams | Plant Injury ([2]; 800 g a.i. ha^−1, 7 DAT): 35.0b % | Plant Injury ([2]; 800 g a.i. ha^−1, 14 DAT): 85.0b % | Plant Injury ([2]; 800 g a.i. ha^−1, 21 DAT): 85.0b % | Plant Injury ([2]; 800 g a.i. ha^−1, 28 DAT): 88.8b % | Dry Weight ([2]; 800 g a.i. ha^−1, 42 DAT): 0.3b grams | Plant Injury ([2]; 1600 g a.i. ha^−1, 7 DAT): 40.8b % | Plant Injury ([2]; 1600 g a.i. ha^−1, 14 DAT): 90.0b % | Plant Injury ([2]; 1600 g a.i. ha^−1, 21 DAT): 92.5b % | Plant Injury ([2]; 1600 g a.i. ha^−1, 28 DAT): 92.5b % | Dry Weight ([2]; 1600 g a.i. ha^−1, 42 DAT): 0.2b grams | Plant Injury ([2]; 3200 g a.i. ha^−1, 7 DAT): 37.9b % | Plant Injury ([2]; 3200 g a.i. ha^−1, 14 DAT): 100.0b % | Plant Injury ([2]; 3200 g a.i. ha^−1, 21 DAT): 100.0b % | Plant Injury ([2]; 3200 g a.i. ha^−1, 28 DAT): 100.0b % | Dry Weight ([2]; 3200 g a.i. ha^−1, 42 DAT): 0.1b grams | injury score [2, 4]: ≥ 80% | injury score [2, 5]: ≥ 30 | LD50 [3]: > 3200 g ai ha^1 | Plant Injury ([3]; 50 g a.i. ha^−1, 7 DAT): 2.9a % | Plant Injury ([3]; 50 g a.i. ha^−1, 14 DAT): 0.0b % | Plant Injury ([3]; 50 g a.i. ha^−1, 21 DAT): 1.2a % | Plant Injury ([3]; 50 g a.i. ha^−1, 28 DAT): 0.0a % | Dry Weight ([3]; 50 g a.i. ha^−1, 42 DAT): 1.7a grams | Plant Injury ([3]; 100 g a.i. ha^−1, 7 DAT): 0.8a % | Plant Injury ([3]; 100 g a.i. ha^−1, 14 DAT): 1.2a % | Plant Injury ([3]; 100 g a.i. ha^−1, 21 DAT): 3.8a % | Plant Injury ([3]; 100 g a.i. ha^−1, 28 DAT): 2.5a % | Dry Weight ([3]; 100 g a.i. ha^−1, 42 DAT): 2.0a grams | Plant Injury ([3]; 200 g a.i. ha^−1, 7 DAT): 1.7a % | Plant Injury ([3]; 200 g a.i. ha^−1, 14 DAT): 0.0a % | Plant Injury ([3]; 200 g a.i. ha^−1, 21 DAT): 0.0a % | Plant Injury ([3]; 200 g a.i. ha^−1, 28 DAT): 0.0a % | Dry Weight ([3]; 200 g a.i. ha^−1, 42 DAT): 1.9a grams | Plant Injury ([3]; 400 g a.i. ha^−1, 7 DAT): 3.8a % | Plant Injury ([3]; 400 g a.i. ha^−1, 14 DAT): 0.0a % | Plant Injury ([3]; 400 g a.i. ha^−1, 21 DAT): 2.5a % | Plant Injury ([3]; 400 g a.i. ha^−1, 28 DAT): 0.0a % | Dry Weight ([3]; 400 g a.i. ha^−1, 42 DAT): 2.0a grams | Plant Injury ([3]; 800 g a.i. ha^−1, 7 DAT): 1.2a % | Plant Injury ([3]; 800 g a.i. ha^−1, 14 DAT): 1.2a % | Plant Injury ([3]; 800 g a.i. ha^−1, 21 DAT): 3.8a % | Plant Injury ([3]; 800 g a.i. ha^−1, 28 DAT): 1.2a % | Dry Weight ([3]; 800 g a.i. ha^−1, 42 DAT): 2.0a grams | Plant Injury ([3]; 1600 g a.i. ha^−1, 7 DAT): 4.3a % | Plant Injury ([3]; 1600 g a.i. ha^−1, 14 DAT): 0.0a % | Plant Injury ([3]; 1600 g a.i. ha^−1, 21 DAT): 3.8a % | Plant Injury ([3]; 1600 g a.i. ha^−1, 28 DAT): 1.2a % | Dry Weight ([3]; 1600 g a.i. ha^−1, 42 DAT): 1.5a grams | Plant Injury ([3]; 3200 g a.i. ha^−1, 7 DAT): 8.3a % | Plant Injury ([3]; 3200 g a.i. ha^−1, 14 DAT): 7.5a % | Plant Injury ([3]; 3200 g a.i. ha^−1, 21 DAT): 5.5a % | Plant Injury ([3]; 3200 g a.i. ha^−1, 28 DAT): 4.2b % | Dry Weight ([3]; 3200 g a.i. ha^−1, 42 DAT): 1.6a grams | maximum injury score observed ([3]; at 3200 g ai ha^−1): 7.5%
